Measured values from patent US10889847B2, “Kit and discs for use in disc diffusion antibiotic sensitivity testing” (YISSUM RESEARCH DEVELOPMENT COMPANY OF THE HEBREW …, priority 2015, dated 2021).

How the values were obtained:
[1] = system: E. cloacae clinical strain B340; experiment: Tolerance Diffusion test (TDtest), strain B340; type: cell-based; settings: ampicillin disk replaced with glucose disk after 18 hours, read at 36 hours
Experimental: (§1) 2 Disc Test (TDtest) Procedure
(§2) The TDtest consists of two steps:
(§3) Step I—Incubation with Antibiotics:
(§4) Circa 10^7 bacteria at stationary phase (100 microliter) were plated on LBL nutrient agar plate. An antibiotic disc was placed on the agar. The plate with the antibiotic disc was incubated for at least 4 hours and up to 30 hours, preferably about 18 hours at 37° C.
(§5) The amount of antibiotics in each disk was adjusted to reach a concentration below the MIC in the inhibition zone after an overnight incubation at 37° C. Many commercial disks contain antibiotics in amounts that are too high for the concentration to fall below the MIC after this time. When this was the case, custom disks were prepared as specified herein below.
(§6) Step II—Incubation with Nutrient:
(§7) This step was carried out in one of the following protocols:
(§8) a. The antibiotic disk was replaced with a nutrient (i.e. 2 mg glucose) disk at the end of the antibiotic incubation time. The plate was incubated again for an additional overnight (at least 5 hours and up to 24 hours, preferably about 18 hours) at 37° C.
(§9) b. Nutrient solution (i.e., 2 mg glucose, or 5 microliter of 40% glucose solution) was added directly on the antibiotic disk, instead of replacing it.
(§10) c. Two phases disk was prepared, by impregnating 6 mg glucose on the upper side of the disk.
After the completion of the above steps, the growth of the bacteria was visually inspected. […]

[2] = system: E. coli tolerant strain tbl3a; experiment: Tolerance Diffusion test (TDtest), strain tbl3a; type: cell-based
Experimental: as §1, §2, §3, §4, §5, §6, §7, §8
b. […]
Tolerant bacteria are identified by the use of two different TDtest methods, the two-disks TDtest and the single disk TDtest. […] The growth of the bacterium was monitored at several time points (0, 8, 17, 30 and 36 hours from the beginning of the test).

tbl5a = experiment: Tolerance Diffusion test (TDtest), strain tbl5a, three growth media; type: cell-based, E. coli; settings: after second step, LB agar, Mueller-Hinton agar, Mueller-Hinton+5% Blood agar
Experimental: FIG. 13A-13C show TDtest performed on three different growth media. The results are shown after the second step of TDtest examining the effect of ampicillin on tbl5a.
FIG. 13A is a LB agar plate.
FIG. 13B is a Mueller-Hinton agar plate.
FIG. 13C is a Mueller-Hinton+5% Blood agar plate.
as §1, §2, §3, §4, §5, §6, §7, §8
b. […]

tbl3a = experiment: Time-kill experiment in liquid culture, tbl3a; type: cell-based, E. coli; settings: for fraction of survivals: antibiotic 100 microgram/ml, after 2.6 hours
Experimental: (§11) Overnight bacterial cultures were diluted 1:100 in fresh medium containing antibiotic and incubated at 37° C. for designated time. Bacterial survival was determined by the most probable number-counting method (MPN), as described in Hurley, M. A. & Roscoe, M. E. Automated Statistical-Analysis of Microbial Enumeration by Dilution Series. J Appl. Bacteriol. 55:159-164 (1983).
These findings were verified by measuring the survival of tbl3a in liquid culture after exposure to the two antibiotics. An overnight culture was diluted and exposed either to ampicillin (100 microgram/ml) or kanamycin (100 microgram/ml). […] The large fraction of survivals in Ampicillin (12% after 2.6 hours) was predicted by the late colonies appearance, and is absent in Kanamycin (1.4E-8% after 2.6 hours).

many species = settings: in many species; cited from earlier work
[3] = system: E. coli clinical strain W574; experiment: Tolerance Diffusion test (TDtest), strain W574; type: cell-based; settings: ertapenem disk (0.25 microgram), glucose disk in step II
Experimental: as §1, §2, §3, §4, §5, §6, §7, §8, §9, §10
(§12) After the completion of the above steps, the growth of the bacteria was visually inspected.

[4] = system: E. coli clinical strain U453; experiment: Tolerance Diffusion test (TDtest), strain U453; type: cell-based; settings: ertapenem disk (0.25 microgram), glucose disk in step II
Experimental: as §1, §2, §3, §4, §5, §6, §7, §8, §9, §10, §12

E. coli strain U453 = experiment: MIC, strain U453; type: cell-based; settings: Escherichia coli
E. coli strain W574 = experiment: MIC, strain W574; type: cell-based; settings: Escherichia coli
[5] = system: E. coli strains W574 and U453; experiment: Survival fraction in liquid culture, W574 versus U453; type: cell-based; settings: ertapenem 10 microgram/ml
Experimental: as §11

[6] = at 12 hours after 1 gram dosing; cited from earlier work

Row | MIC (E. coli strain U453) [µg/mL] | MIC (E. coli strain W574) [µg/mL] | SMILES | tolerance by TDtest (colonies in inhibition zone) [1] | bacterial colonies in TDtest plate ([2]; after 36 hours, two-disks TDtest (glucose disk after 18 hours) or single disk TDtest) | tolerance by TDtest ([2]; ampicillin 10 microgram or kanamycin 15 microgram disk) | tolerance level by TDtest (tbl5a) | survival fraction under ampicillin relative to kanamycin (tbl3a; 100 microgram/ml each) | fraction of survivals (tbl3a) [%] | MIC (many species) | tolerance level by TDtest (colonies inside the inhibition zone after step II) [3] | tolerance level by TDtest (colonies inside the inhibition zone after step II) [4] | fraction of survival of a liquid culture, W574 versus U453 [5] | mean serum concentration [6] [microgram/ml]
1 |  |  | CC1(C)S[C@@H]2[C@H](NC(=O)[C@H](N)c3ccccc3)C(=O)N2[C@H]1C(=O)O [ampicillin] | tolerant | bacterial colonies are well seen | very tolerant | medium tolerance (“medium tolerance” is 10 to a few hundred colonies in the inhibition zone) | three orders of magnitude lower | 12 | around 4 microgram/ml |  |  |  | 
2 | < 0.05 | < 0.05 | C[C@@H](O)[C@H]1C(=O)N2C(C(=O)O)=C(S[C@@H]3CN[C@H](C(=O)Nc4cccc(C(=O)O)c4)C3)[C@H](C)[C@H]12 [ertapenem] |  |  |  |  |  |  |  | high tolerance | low tolerance | higher tolerance | ~10
3 |  |  | NC[C@H]1O[C@H](O[C@H]2[C@H](O)[C@@H](O[C@H]3O[C@H](CO)[C@@H](O)[C@H](N)[C@H]3O)[C@H](N)C[C@@H]2N)[C@H](O)[C@@H](O)[C@@H]1O [kanamycin] |  |  |  |  |  | 1.4E-8 |  |  |  |  | 
